Laboratory results as given in patent US20070111965A1, “COMPOSITIONS COMPRISING LIPOXYGENASE INHIBITORS AND CYCLODEXTRIN” (priority 2005, published 2007).

Experiments:
[1] = format: physicochemical
Source text: The low solubility in water of certain N-hydroxyurea 5- and/or 12-lipoxygenase inhibitors prevents these beneficial agents from broader use than they would otherwise enjoy if aqueous formulations could be prepared at therapeutically effective concentrations. […] In addition to its poor solubility, zileuton and likely other N-hydroxyurea lipoxygenase inhibitors are predicted to be chemically unstable in aqueous solution for storage at room temperature for prolonged periods of time [Insert Reference]. Degradation is consistent with specific hydronium- or water-catalyzed hydrolysis to afford the carbamic acid, which immediately loses carbon dioxide to generate the hydroxylamine as shown below. [drawing 2]
No buffer catalysis has been observed for zileuton. Using acid- and water-catalyzed rate constants at 25° C., the pseudo first-order rate constant is determined to be approximately 7.8×10^−5 h^−1 over a pH range of about 3.5 to about 7.5. The shelf life at 10% drug loss is calculated to be 57.3 days at an optimal pH of 5.6.
Based on literature data [Alvarez, F J; Slade, R T. Kinetics and mechanism of degradation of zileuton, a potent 5-lipoxygenase inhibitor. Pharm. Res., 1992, 9(11): 1465-1473], zileuton in solution is expected to have adequate short-term stability (at least 1 month at 25° C.) over a pH range of 4 to 7.

[2] = cited from earlier work
[3] = 25° C., pH range of 4 to 7, literature data; cited from earlier work

pseudo first-order rate constant (degradation) [1]: approximately 7.8×10^−5 h^−1
shelf life at 10% drug loss ([1]; optimal pH of 5.6, 25° C.): 57.3 days
Structure (SMILES): CC(c1cc2ccccc2s1)N(O)C(N)=O (racemic) [zileuton, ((±)-1-(1-benzo[b]thien-2-ylethyl)-1-hydroxyurea]
solubility in acetonitrile ([2]; acetonitrile): slightly soluble
solubility in hexane and water ([2]; hexane and water): practically insoluble
solubility in methanol and ethanol ([2]; methanol and ethanol): soluble
water solubility ([2]; water, 25° C.): 80 to 140 µg/mL
short-term stability in solution [3]: at least 1 month
